From the supplement of paper PMC10627819

How the values were obtained:
[1] = tested on: S. aureus Newman; test: Bliss interaction score (quartile over a dose matrix) (fitness difference); higher = more antagonism (negative = synergy)
Outline: (§1)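 Fitness here means normalised growth, inferred for single drugs from the combination data. Growth was OD595 at entry into stationary phase, divided by the plate's robust no-drug mean and capped at 1. The Bliss score is observed minus expected fitness, with the expectation being the product, and its quartiles span technical, biological and donor/recipient replicates.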

[2] = tested on: S. aureus DSM 20231; test: as above
Outline: as §1

[3] = tested on: B. subtilis 168; test: as above
Outline: as §1

[4] = tested on: S. pneumoniae D39V; test: as above
Outline: as §1

[5] = tested on: S. pneumoniae D39V; test: fitness (endpoint OD595 vs no drug) (fraction); higher = more growth
Outline: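 Fitness expresses the optical density reached at the stationary-phase transition as a fraction of the robust mean of no-drug control wells. It is capped at 1. Measurements were OD595 every 30 min for 14 h at 37 °C after inoculation of 384-well plates at OD595 0.01 (30 µl, or 55 µl for S. pneumoniae), minus the first reading.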
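Throughout, for Bliss interaction score (quartile over a dose matrix): first quartile when negative (synergy) and third quartile when positive (antagonism).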
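Throughout, for fitness (endpoint OD595 vs no drug): OD595 on entry to stationary phase over no-drug wells; at most 1.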

CO/N=C(\C(=O)N[C@@H]1C(=O)N2C(C(=O)[O-])=C(C[N+]3(C)CCCC3)CS[C@H]12)c1csc(N)n1 [Cefepime] + C[C@H]1COc2c(N3CCN(C)CC3)c(F)cc3c(=O)c(C(=O)O)cn1c23 [Levofloxacin]
Conditions	Bliss interaction score
[1]	0.0639
[2]	0.0646
[3]	0.0275
[4]	0.157

fitness, [5]
Conditions	partner 0.1725 µg/mL	partner 0.2 µg/mL	partner 0.345 µg/mL	partner 0.4 µg/mL	partner 0.69 µg/mL	partner 0.8 µg/mL
first compound 0.007 µg/mL	–	0.996	–	0.951	–	0.779
first compound 0.0078 µg/mL	0.991	–	0.937	–	0.727	–
first compound 0.014 µg/mL	–	0.993	–	0.963	–	0.768
first compound 0.0155 µg/mL	0.928	–	0.924	–	0.62	–
first compound 0.028 µg/mL	–	0.935	–	0.861	–	0.516

CO/N=C(\C(=O)N[C@@H]1C(=O)N2C(C(=O)[O-])=C(C[N+]3(C)CCCC3)CS[C@H]12)c1csc(N)n1 [Cefepime] + Clc1ccc(COC(Cn2ccnc2)c2ccc(Cl)cc2Cl)c(Cl)c1 [Miconazole]
Conditions	Bliss interaction score
[1]	-0.0643
[2]	-0.109
[3]	0.0393
[4]	0.0753

[5]
Conditions	fitness
first compound 0.007 µg/mL, partner 1.25 µg/mL	0.985
first compound 0.007 µg/mL, partner 2.5 µg/mL	0.982
first compound 0.007 µg/mL, partner 5 µg/mL	0.965
first compound 0.0078 µg/mL, partner 1.073 µg/mL	≥ 1
first compound 0.0078 µg/mL, partner 2.145 µg/mL	≥ 1
first compound 0.0078 µg/mL, partner 4.29 µg/mL	0.948
first compound 0.014 µg/mL, partner 1.25 µg/mL	0.934
first compound 0.014 µg/mL, partner 2.5 µg/mL	0.969
first compound 0.014 µg/mL, partner 5 µg/mL	0.943
first compound 0.0155 µg/mL, partner 1.073 µg/mL	0.995
first compound 0.0155 µg/mL, partner 2.145 µg/mL	0.851
first compound 0.0155 µg/mL, partner 4.29 µg/mL	0.848
first compound 0.028 µg/mL, partner 1.25 µg/mL	0.87
first compound 0.028 µg/mL, partner 2.5 µg/mL	0.872
first compound 0.028 µg/mL, partner 5 µg/mL	0.861
first compound 0.031 µg/mL, partner 4.29 µg/mL	0.491

CO/N=C(\C(=O)N[C@@H]1C(=O)N2C(C(=O)[O-])=C(C[N+]3(C)CCCC3)CS[C@H]12)c1csc(N)n1 [Cefepime] + O=C1CN(/N=C/c2ccc([N+](=O)[O-])o2)C(=O)N1 [Nitrofurantoin]
Conditions	Bliss interaction score
[1]	0.0549
[2]	0.0422
[3]	-0.125
[4]	0.188

fitness, [5]
Conditions	first compound 0.007 µg/mL	first compound 0.0078 µg/mL	first compound 0.014 µg/mL	first compound 0.0155 µg/mL	first compound 0.028 µg/mL	first compound 0.031 µg/mL
partner 1.285 µg/mL	–	0.957	–	0.943	–	0.811
partner 2 µg/mL	0.988	–	0.979	–	0.912	–
partner 2.57 µg/mL	–	0.962	–	0.942	–	0.738
partner 4 µg/mL	0.991	–	0.955	–	0.887	–
partner 8 µg/mL	0.949	–	0.927	–	0.843	–

[5], partner 5.14 µg/mL, one replicate
Conditions	fitness
first compound 0.0078 µg/mL	0.959
first compound 0.0155 µg/mL	0.993
first compound 0.031 µg/mL	0.825

CCCCCCCCCC(=O)N[C@@H](Cc1c[nH]c2ccccc12)C(=O)N[C@H](CC(N)=O)C(=O)N[C@@H](CC(=O)O)C(=O)N[C@@H]1C(=O)NCC(=O)N[C@@H](CCCN)C(=O)N[C@@H](CC(=O)O)C(=O)N[C@H](C)C(=O)N[C@@H](CC(=O)O)C(=O)NCC(=O)N[C@H](CO)C(=O)N[C@@H]([C@H](C)CC(=O)O)C(=O)N[C@@H](CC(=O)c2ccccc2N)C(=O)O[C@@H]1C [Daptomycin] + CO[C@H]1/C=C/O[C@@]2(C)Oc3c(C)c(O)c4c(O)c(c(/C=N/N5CCN(C)CC5)c(O)c4c3C2=O)NC(=O)/C(C)=C\C=C\[C@H](C)[C@H](O)[C@@H](C)[C@@H](O)[C@@H](C)[C@H](OC(C)=O)[C@@H]1C [Rifampicin]
Conditions	Bliss interaction score
[1]	0.0195
[2]	-0.0427
[3]	-0.0667
[4]	0.104

fitness, [5]
Conditions	first compound 1 µg/mL	first compound 2 µg/mL	first compound 4 µg/mL
partner 0.025 µg/mL	0.978	≥ 1	≥ 1
partner 0.05 µg/mL	0.823	0.864	0.926
partner 0.1 µg/mL	0.262	0.271	–

[5], partner 0.2 µg/mL, one replicate
Conditions	fitness
first compound 1 µg/mL	0
first compound 2 µg/mL	0
first compound 4 µg/mL	0

Cn1nnc(-c2ccc(-c3ccc(N4C[C@H](CO)OC4=O)cc3F)cn2)n1 [Tedizolid] + CN(C)c1cc(NC(=O)CNC(C)(C)C)c(O)c2c1C[C@H]1C[C@H]3[C@H](N(C)C)C(O)=C(C(N)=O)C(=O)[C@@]3(O)C(O)=C1C2=O [Tigecycline]
Conditions	Bliss interaction score
[1]	0.0453
[2]	-0.107
[3]	-0.0434
[4]	-0.0764

Cn1nnc(-c2ccc(-c3ccc(N4C[C@H](CO)OC4=O)cc3F)cn2)n1 [Tedizolid] + COc1cc(Cc2cnc(N)nc2N)cc(OC)c1OC [Trimethoprim]
Conditions	Bliss interaction score
[1]	0.136
[2]	0.215
[3]	0.0776
[4]	-0.0785

Cn1nnc(-c2ccc(-c3ccc(N4C[C@H](CO)OC4=O)cc3F)cn2)n1 [Tedizolid] + Oc1cc(Cl)ccc1Oc1ccc(Cl)cc1Cl [Triclosan]
Conditions	Bliss interaction score
[1]	0.037
[2]	-0.153
[3]	0.0378
[4]	-0.075
